For data set [1] the following is noted: cited from earlier work.
Data set [2] in a line: Water solubility studies by the present inventors.
The test system of data set [3] is LNCaP cells. Kind of data set: LNCaP cell proliferation in vitro (crystal violet, 492 nm absorbance). The data set is classed as cell-based, human. Particulars: for % Growth: relative to control wells (100%). Here is the method: LNCap cells are human metastatic prostate adenocarcinoma cells that are used as a model for prostate cancer (see, e.g., Pousette et al., Prostate 31:198, 1997). In one study, LNCaP cells were seeded at concentrations of 2×10^3 and 1×10^3 cells/well in 96 well plates. […] After incubation, the cells were fixed with 1% glutaraldehyde solution, and stained for 5 minutes with 0.5% crystal violet. The dye was successively eluted with 100 μl of buffer solution and the absorbance was read on a Titertek Multiskan microplate reader using a wavelength of 492 nm absorbance. Cell growth was expressed as a percentage relative to control wells in the absence of the compound (set at 100%).

A short description of data set [4]: In vitro drug release from TB:MePEG350 pastes into PBS/albumin with octanol phase. The format is physicochemical. Particulars: 10% drug-loaded TB:MePEG350 (40:60) paste.
Protocol: Fifteen milligrams of each composition were placed in 20 mL glass scintillation vials and cooled to 4° C. to form uniform solid pellets. Five milliliters of ice cold phosphate-buffered saline (PBS; pH 7.4) containing 0.2% bovine serum albumin (Fraction 4, Boehringer Mannheim) were placed on top of the pellet followed by 5 mL of octanol (Fisher Scientific). The octanol formed an upper imiscible phase on top of the PBS so that any drug released into the PBS would partition into the octanol phase.
UV/VIS analysis was performed by determining the absorbance at the specified wavelength. Calibration graphs of the drugs in octanol were established by measuring the absorbance of a set of standards of each drug in octanol in the 0 to 50 μg/mL concentration range.
For data set [5], the system named is LNCaP cells. As to the kind of experiment: Apoptosis / DNA fragmentation assay in LNCaP cells. The format is cell-based, human.
For data set [6] the following is noted: single dose in humans; cited from earlier work.
Data set [7] can be described thus: Drug-dependent solidification: time for paste pellets to break up under stirring at 300 rpm at 37° C. The data set is classed as physicochemical. The settings on record: 10% w/w drug in 40:60 (TB:MePEG350) paste; 1 hour at 37° C. then 300 rpm.
Protocol: Fifteen milligrams of each composition were placed in a 20 mL glass scintillation vial and cooled to 4° C. to form uniform solid pellets. Five milliliters of ice cold phosphate-buffered saline (PBS; pH 7.4) containing 0.2% bovine serum albumin (Fraction 4, Boehringer Mannheim) were placed on top of the pellet, and the vial was placed in a stationary position in a 37° C. oven for 1 hour. At this time, a stir bar was placed in the vial and stirring was commenced at 300 rpm until the paste pellet disintegrated.

In brackets after ≈: the same amount, converted by molar mass. Where two headings read alike, the source gives them in different places.

The values that follow come from patent publication US20050042293A1, “Polymeric systems for drug delivery and uses thereof” (The University of British Columbia, priority 1997, published 2005).

Regarding `C[C@@H]1[C@H](O)[C@@H](C)/C=C/C=C/C=C/C=C/C=C/C=C/C=C/[C@H](O[C@@H]2O[C@H](C)[C@@H](O)[C@H](N)[C@@H]2O)C[C@@H]2O[C@](O)(C[C@@H](O)C[C@@H](O)[C@H](O)CC[C@@H](O)C[C@@H](O)CC(=O)O[C@H]1C)C[C@H](O)[C@H]2C(=O)O` [Amphotericin], the solubility (in general, how much of the substance goes into solution per volume) in the data set “physchem” (water) was less than 2 µg/mL. The “solubility in water (in words)” value in data set [1] (water at pH 6 to 7) and in data set [1] (water) was “insoluble in water” in each case.
For the molecule `O=C1c2c(O)cccc2Cc2cccc(O)c21` [Anthralin], the “solubility in water (in words)” value in data set [1] (water) was “practically insoluble in water”.
In the case of `C[C@H]1C[C@H]2[C@@H]3CCC4=CC(=O)C=C[C@]4(C)[C@@]3(F)[C@@H](O)C[C@]2(C)[C@@]1(O)C(=O)CO` [Betamethasone], the solubility in water in data set [1] (water) was 190 µg/mL (≈ 484 µM).
In turn, `CC[C@@]1(O)C(=O)OCc2c1cc1n(c2=O)Cc2cc3ccccc3nc2-1` [Camptothecin] registered a solubility in data set [2] (water) of less than 2 µg/mL. Further, in the data set with LNCaP cells [3] (0.001 nM), the “percentage of cells to which the drug was toxic” value was “over 60%”. In addition, the “492 nm Absorbance” value with LNCaP cells [3] (0.001 nM, 5 days) worked out at 0.169 ± 0.05; with LNCaP cells [3] (0.05 nM, 5 days), 0.14 ± 0.04; in the data set with LNCaP cells [3] (0.1 nM, 5 days), 0.10 ± 0.02; with LNCaP cells [3] (1 nM, 5 days), 0.10 ± 0.02; with LNCaP cells [3] (10 nM, 5 days), 0.088 ± 0.02; in the data set on LNCaP cells [3] (100 nM, 5 days), 0.038 ± 0.01. For the same molecule, the “% Growth” value turned out to be 36% with LNCaP cells [3] (0.001 nM, 5 days); 29% with LNCaP cells [3] (0.05 nM, 5 days); 21% in the data set on LNCaP cells [3] (0.1 nM, 5 days); 21% in the data set on LNCaP cells [3] (1 nM, 5 days); 17% with LNCaP cells [3] (10 nM, 5 days); 8% with LNCaP cells [3] (100 nM, 5 days). Moreover, the “IC50 against LNCaP cells (in words)” value with LNCaP cells [3] (inferred from Table 12) was “femtomolar concentration range”. Moreover, the solubility in water in data set [1] (water) was 1 to 2 µg/mL. In addition, the “solubility in water (in words)” value in data set [1] (water) is given as “insoluble in water”.
`COc1cc(/C=C/C(=O)CC(=O)/C=C/c2ccc(O)c(OC)c2)ccc1O` [Curcumin]: the solubility in “physchem” (water) is less than 2 µg/mL. The “solubility in water (in words)” value in data set [1] (water) is on record as “practically insoluble in water”.
As for `C[C@@H]1C[C@H]2[C@@H]3CCC4=CC(=O)C=C[C@]4(C)[C@@]3(F)[C@@H](O)C[C@]2(C)[C@@]1(O)C(=O)CO` [Dexamethasone], the solubility in water in data set [1] (water) was 10 µg/mL (≈ 25.5 µM).
In the case of `O=c1c(-c2ccc(O)cc2)coc2cc(O)cc(O)c12` [Genistein], the water solubility result in data set [2] (water) was “approximately 1 μg/mL”. For the same molecule, the solubility in data set [2] (water, water solubility) is less than 2 µg/mL. In addition, the “total encapsulated drug released” value in data set [4] (by day 7) is recorded as 50%. Besides, the “solubility in water (in words)” value was “practically insoluble in water” in data set [1] (water) and “insoluble in water” in data set [1] (water, listed as genistein).
In the case of `COc1ccc2c(c1)c(CC(=O)O)c(C)n2C(=O)c1ccc(Cl)cc1` [Indomethacin], the “solubility in water (in words)” value in data set [1] (water) is “practically insoluble in water”.
For the molecule `CC(=O)O[C@H]1C(=O)[C@@]2(C)[C@H]([C@H](OC(=O)c3ccccc3)[C@]3(O)C[C@H](OC(=O)[C@H](O)[C@@H](NC(=O)c4ccccc4)c4ccccc4)C(C)=C1C3(C)C)[C@]1(OC(C)=O)CO[C@@H]1C[C@@H]2O` [Paclitaxel], the “DNA fragmentation (gel electrophoresis)” value in the data set with LNCaP cells [5] (100 nM, 18 hours of treatment) is given as “induced DNA fragmentation”. In addition, the “apoptosis by optical microscopy” value with LNCaP cells [5] (paclitaxel treated cells, intracellular apoptotic bodies) is listed as “clear evidence of apoptosis”. In the data set “physchem” (water), this molecule gave a solubility of less than 2 µg/mL. Besides, the toxic limit in data set [6] was 200 mg. For the same molecule, the “492 nm Absorbance” value in the data set on LNCaP cells [3] (0.001 nM, 5 days) turned out to be 0.049 ± 0.05; in the data set on LNCaP cells [3] (0.01 nM, 5 days), 0.40 ± 0.03; in the data set with LNCaP cells [3] (0.05 nM, 5 days), 0.36 ± 0.02; in the data set with LNCaP cells [3] (0.1 nM, 5 days) it was 0.20 ± 0.03; in the data set on LNCaP cells [3] (1 nM, 5 days), 0.025 ± 0.01; in the data set on LNCaP cells [3] (10 nM, 5 days), 0.027 ± 0.01. The “492 nm Absorbance” value with LNCaP cells [3] (100 nM, 5 days) stood at 0.033 ± 0.01. Besides, the “% Growth” value with LNCaP cells [3] (0.001 nM, 5 days) was found to be 100%; in the data set on LNCaP cells [3] (0.01 nM, 5 days) it was 81%; in the data set with LNCaP cells [3] (0.05 nM, 5 days), 73%; in the data set with LNCaP cells [3] (0.1 nM, 5 days) it was 40%; in the data set on LNCaP cells [3] (1 nM, 5 days) it was 5%; in the data set on LNCaP cells [3] (10 nM, 5 days), 5%. Moreover, the “% Growth” value in the data set on LNCaP cells [3] (100 nM, 5 days) is on record as 6%. For the same molecule, the “lowest concentration causing inhibition of LNCaP cell growth” value in the data set on LNCaP cells [3] (5 days) came out at 10 pM. In the data set on LNCaP cells [3] (Homo sapiens, LNCaP, 120 h, 5 days incubation, read-out: IC50, LNCaP cell growth), the IC50 (usually the point on the concentration scale where inhibition reaches its midpoint) is roughly 0.09 nM. Moreover, in data set [1] (water), the solubility in water is 1 to 2 µg/mL. In data set [1] (water), the “solubility in water (in words)” value was “insoluble in water”.
Take `CC1=C(/C=C/C(C)=C/C=C/C(C)=C/C(=O)O)C(C)(C)CCC1` [Tretinoin]: in the data set “physchem” (water), the solubility was less than 2 µg/mL. In addition, the “solubility in water (in words)” value in data set [1] (water) is reported as “practically insoluble in water”; in data set [1] (water, listed as tretinoin) it was “insoluble in water”.
Consider `COc1cc2c(c(OC)c1OC)-c1ccc(OC)c(=O)cc1[C@@H](NC(C)=O)CC2` [colchicine], for which, in data set [2] (pH 7.4, aqueous buffer, water solubility in PBS/albumin, PBS/albumin (pH 7.4)), the solubility was greater than 500 µg/mL. Moreover, in data set [7], the “time paste pellet stayed intact under stirring” value came out at 2.5 min.
`CN(Cc1cnc2nc(N)nc(N)c2n1)c1ccc(C(=O)N[C@@H](CCC(=O)O)C(=O)O)cc1` [methotrexate] gave a solubility in the data set “physchem” (pH 7.4, aqueous buffer) greater than 500 µg/mL. In data set [4] (first 24 hours), the encapsulated drug released result is “almost all the encapsulated drug”. For the same molecule, the “disintegration time under stirring” value in data set [7] is 30 s.
Turning to `C[C@@H]1[C@H](O)[C@@H](C)/C=C/C=C/CC/C=C/C=C/C=C/C=C/C(O[C@H]2O[C@H](C)[C@@H](O)[C@H](N)[C@@H]2O)CC2O[C@](O)(CC(O)C(O)CCC(O)CC(O)CC(O)CC(=O)O[C@H]1C)CC(O)C2C(=O)O` (some centres unmarked) [nystatin], the “solubility in water (in words)” value in data set [1] (water) is reported as “insoluble in water”.
